Assay results reported in patent publication US20030195350A1, “Individualization of therapy with antiviral agents” (priority 2001, published 2003).
Marks after values point to notes of the source that are not given here.

What was measured:
HIV isolates = HIV isolates from individuals during ritonavir therapy vs matched baseline isolates; cited from earlier work
AAMU-Ab = test: Competitive antigen ELISA, cross-reactivity of AAMU-Ab; assay type: binding, rabbit; conditions: 0 = absence of inhibition or inhibition no higher than 40% at 5 × 10^−3 M
Description: (§1) Buffers and water without additives are filtered through millipore filters and kept for 1 week. BSA, antibodies, Tween™ 20 and horse radish peroxidase conjugates are added to these buffers and water just prior to use. Urine samples are usually collected 4 hours after drinking a cup of coffee (instant or brewed with approximately 100 mg of caffeine per cup) and stored at −80° C. The urine samples are diluted 10 times with sodium phosphate buffer (620 mosm, pH 7.50) and are subsequently diluted with water to give concentrations of AAMU and 1X no higher than 3×10^−6 M in the ELISA. All the pipettings are done with an eight-channel pipette, except those of the antibody and sample solutions. Starting with the last well, 100 μL of a carbonate buffer (100 mM, pH 9.6) containing 2.5 μg mL^−1 antibodies are added to each well. After 90 min. at room temperature, the wells are washed three times with […] of TPB: isotonic sodium phosphate buffer (310 mosm, pH 7.50) containing 0.05% Tween™ 20.
(§2) After the initial wash, unoccupied sites are blocked by incubation for 90 min. at room temperature with 100 μL TBP containing 3% BSA. The wells are washed four times with 100 μL TPB. […] The microplate is gently shaken with an orbital shaker at room temperature for 3-4 hours. The wells are washed three times with 100 μL TPB containing 1% BSA and three times with water containing 0.05% Tween™ 20. To the washed plate is added 150 μL of a substrate buffer composed of citric acid (25 mM) and sodium phosphate dibasic buffer (50 mM, pH 5.0) containing 0.06% hydrogen peroxide and 0.04% o-phenylenediamine hydrochloride.
(§3) Buffers and water without additives were filtered through millipore filters and kept for 1 week. BSA, antibodies, Tween™ 20 and horse radish peroxidase conjugates were added to these buffers and water just prior to use. Urine samples were usually collected 4 hours after drinking a cup of coffee (instant or brewed with approximately 100 mg of caffeine per cup) and stored at −80° C. They were diluted 10 times with sodium phosphate buffer (620 mosm, pH 7.50) and were subsequently diluted with water to give concentrations of AAMU and 1X no higher than 3×10^−6 M in the ELISA. All the pipettings were done with an eight-channel pipette, except those of the antibody and sample solutions. Starting with the last well, 100 μL of a carbonate buffer (100 mM, pH 9.6) containing 2.5 μg mL^−1 antibodies was pipetted. After 90 min. at room temperature, the wells were washed three times with 100 μL of TPB: isotonic sodium phosphate buffer (310 mosm, pH 7.50) containing 0.05% Tween™ 20.
(§4) After the initial wash, unoccupied sites were blocked by incubation for 90 min. at room temperature with 100 μL TBP containing 3% BSA. The wells were washed four times with 100 μL TPB. […] The microplate was gently shaken with an orbital shaker at room temperature for 3-4 hours. The wells were washed three times with 100 μL with TPB containing 1% BSA and three times with water containing 0.05% Tween™ 20. To the washed plate was added 150 μL of a substrate buffer composed of citric acid (25 mM) and sodium phosphate dibasic buffer (50 mM, pH 5.0) containing 0.06% hydrogen peroxide and 0.04% o-phenylenediamine hydrochloride. After 20 min. at room temperature with shaking, the reaction was stopped with 50 μL of 2.5 N HCl.
(§5) The cross reactivities of AAMU-Ab and 1X-Ab were tested using a wide variety of caffeine metabolites and structural analogs (Table 3 below).

1X-Ab = test: Competitive antigen ELISA, cross-reactivity of 1X-Ab; assay type: binding, rabbit; conditions: 0 = absence of inhibition or inhibition no higher than 40% at 5 × 10^−3 M
Description: as §1, §2, §3, §4, §5

[1] = co-administration with ritonavir; cited from earlier work
[2] = in vivo; cited from earlier work

CC(C)CN(C[C@@H](O)[C@H](Cc1ccccc1)NC(=O)O[C@H]1CCOC1)S(=O)(=O)c1ccc(N)cc1 [amprenavir]
decrease in susceptibility in vitro (HIV isolates): none

Cn1cnc2c1c(=O)[nH]c(=O)n2C [3,7-Dimethyl Xanthine (Theobromine), 3,7-Dimethyl Xanthine]
% Cross-Reaction AAMU-Ab (AAMU-Ab): 0% | % Cross-Reaction 1X-Ab (1X-Ab): 0%

CC(=O)Nc1c(N)n(C)c(=O)n(C)c1=O [5-Acetamino-6-amino-1,3-dimethyluracil]
% Cross-Reaction AAMU-Ab (AAMU-Ab): 0% | % Cross-Reaction 1X-Ab (1X-Ab): 0%

CCOC(=O)C1(c2ccccc2)CCN(C)CC1 [Meperidine]
Effect (on drug concentration) [1]: down meperidine

Cn1c(=O)[nH]c2[nH]c(=O)n(C)c2c1=O [1,7-Dimethyluric acid]
% Cross-Reaction AAMU-Ab (AAMU-Ab): 0% | % Cross-Reaction 1X-Ab (1X-Ab): 0%

O=c1[nH]cnc2nc[nH]c12 [Hypoxanthine]
% Cross-Reaction AAMU-Ab (AAMU-Ab): 0% | % Cross-Reaction 1X-Ab (1X-Ab): 0%

Cn1c(=O)c2c(ncn2C)n(C)c1=O [1,3,7-Trimethyl Xanthine (Caffeine), 1,3,7-Trimethyl Xanthine]
% Cross-Reaction AAMU-Ab (AAMU-Ab): 0% | % Cross-Reaction 1X-Ab (1X-Ab): 0%

CC(C)[C@H](NC(=O)N(C)Cc1csc(C(C)(C)O)n1)C(=O)N[C@@H](Cc1ccccc1)C[C@H](O)[C@H](Cc1ccccc1)NC(=O)OCc1cncs1 [Compound M-2]
concentrations of metabolite in plasma [2]: low

CCC(=O)C(CC(C)N(C)C)(c1ccccc1)c1ccccc1 (centres unmarked) [Methadone]
Effect (on drug concentration) [1]: down methadone

CC(C)(C)NC(=O)[C@@H]1CN(Cc2cccnc2)CCN1C[C@@H](O)C[C@@H](Cc1ccccc1)C(=O)N[C@H]1c2ccccc2C[C@H]1O [Indinavir, indinavir]
decrease in susceptibility in vitro (HIV isolates): 8 fold

Cn1c(=O)c2[nH]cnc2n(C)c1=O [1,3-Dimethyl Xanthine (Theophylline), 1,3-Dimethyl Xanthine]
% Cross-Reaction AAMU-Ab (AAMU-Ab): 0% | Effect (on drug concentration) [1]: down theophylline | % Cross-Reaction 1X-Ab (1X-Ab): 0.2%

CC(C)(C)NC(=O)[C@@H]1C[C@@H]2CCCC[C@@H]2CN1C[C@@H](O)[C@H](Cc1ccccc1)NC(=O)[C@H](CC(N)=O)NC(=O)c1ccc2ccccc2n1 [Saquinavir, saquinavir]
decrease in susceptibility in vitro (HIV isolates): did not demonstrate a concordant decrease in susceptibility

O=c1[nH]c(=O)c2[nH]cnc2[nH]1 [Xanthine]
% Cross-Reaction AAMU-Ab (AAMU-Ab): 0^a % | % Cross-Reaction 1X-Ab (1X-Ab): 0%

Cn1c(=O)[nH]c2ncn(C)c2c1=O [1,7-Dimethyl Xanthine (Paraxanthine), 1,7-Dimethyl Xanthine]
% Cross-Reaction AAMU-Ab (AAMU-Ab): 0% | % Cross-Reaction 1X-Ab (1X-Ab): 0.5%
